The target of series [1] is T1, AR protein (Homo sapiens, UniProt P10275).
T1 construct: endogenous in cells; host or cells: VCaP
T1 sequence (P10275 1-920): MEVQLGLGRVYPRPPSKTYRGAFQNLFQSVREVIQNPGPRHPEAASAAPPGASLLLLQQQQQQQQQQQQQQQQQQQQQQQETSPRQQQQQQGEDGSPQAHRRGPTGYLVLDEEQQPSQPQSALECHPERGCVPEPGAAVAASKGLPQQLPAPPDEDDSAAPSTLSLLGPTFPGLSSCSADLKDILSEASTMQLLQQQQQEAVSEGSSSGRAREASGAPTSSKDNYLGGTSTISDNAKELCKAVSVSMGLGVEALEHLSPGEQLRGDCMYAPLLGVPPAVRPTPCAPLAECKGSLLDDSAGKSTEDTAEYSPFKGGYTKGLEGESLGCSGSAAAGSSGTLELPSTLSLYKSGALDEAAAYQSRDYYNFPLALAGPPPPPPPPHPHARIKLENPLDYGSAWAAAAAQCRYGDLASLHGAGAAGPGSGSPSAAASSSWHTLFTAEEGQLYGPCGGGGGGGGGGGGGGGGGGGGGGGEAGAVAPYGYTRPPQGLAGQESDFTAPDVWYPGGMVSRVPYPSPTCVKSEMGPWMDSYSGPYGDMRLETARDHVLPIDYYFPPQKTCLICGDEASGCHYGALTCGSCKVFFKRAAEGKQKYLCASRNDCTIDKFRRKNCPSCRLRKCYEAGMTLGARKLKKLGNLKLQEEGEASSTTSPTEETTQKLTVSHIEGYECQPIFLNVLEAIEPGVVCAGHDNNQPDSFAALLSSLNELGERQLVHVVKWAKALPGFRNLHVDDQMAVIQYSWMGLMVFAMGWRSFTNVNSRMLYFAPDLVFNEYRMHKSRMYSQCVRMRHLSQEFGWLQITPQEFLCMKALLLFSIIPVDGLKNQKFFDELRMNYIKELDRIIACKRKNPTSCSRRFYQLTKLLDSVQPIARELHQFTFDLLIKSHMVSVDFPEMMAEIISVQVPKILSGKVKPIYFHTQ
Nature of the series: Western blotting analysis of AR protein levels in VCaP cells, band quantification, DC50/DC90. It is filed as cell-based. As to conditions: VCaP cells, Table 6; read-out: VCaP DC50. On the procedure: The appropriate cell line, e.g., prostate cancer LNCaP, Vcap, or 22RV1 cell line, was treated with Compounds of the Disclosure as indicated. The treated cells were lysed with RIPA buffer. […] GAPDH was used as a loading control.
Bands were quantified with ImageJ software. The relative numbers of each band obtained from normalization with its corresponding GAPDH level were compared with Prism 8 software. The DC50 values were produced from Prism 8, and the DC90 values were calculated with an equation=Bottom+(Top−Bottom)/(1+10^((Log EC50−X)*HillSlope) based on DC50 and Hillslope values.

The nature of series [2]: Mouse PK studies after oral and IV dosing. It is filed as in vivo. As to conditions: for F: PO 3 mg/kg vs IV 1 mg/kg; for AUC(0-t) / clearance / half-life / Vd / Cmax / Tmax: in vivo; for clearance: read-out: IV Cl (converted); for Vd: read-out: IV VSS. The procedure: The pharmacokinetics of representative Compounds of the Disclosure were determined after oral and IV dosing at the concentrations indicated in mouse (Table 7). […] The vehicles used in these studies are either (i) 10% PEG400+90% PBS (adjusted to pH to 8.0 by 0.5 N NaOH); or (ii) 100% PEG200.

Where [3] appears, read: iv, 1 mg/kg, IV, dose 1 mg/kg, read-out: IV AUC(0 − t).
The mark [4] stands for this setting: iv, 1 mg/kg, IV, dose 1 mg/kg, read-out: IV T1/2 (converted).
[5] abbreviates: po, 3 mg/kg, PO, dose 3 mg/kg, read-out: PO AUC(0 − t).
Where [6] appears, read: po, 3 mg/kg, PO, dose 3 mg/kg, read-out: PO T1/2 (converted).

Where two headings read alike, the source gives them in different places. Bounds are passed on as bounds.

Take `C[C@H]1CC2(CCN(c3ccc(C(=O)N4CCN(CC5CN(c6ccc7c(c6)C(=O)N(C6CCC(=O)NC6=O)C7=O)C5)CC4)nn3)CC2)CN1c1ccc(C#N)c(Cl)c1` (stereo partly drawn) [Cpd. No. 484, 2-chloro-4-((3S)-8-(6-(4-((1-(2-(2,6-dioxopiperidin-3-yl)-1,3-dioxoisoindolin-5-yl)azetidin-3-yl)methyl)piperazine-1-carbonyl)pyridazin-3-yl)-3-methyl-2,8-diazaspiro[4.5]decan-2-yl)benzonitrile]: the DC50 in series [1] was 1 to 10 nM. The F in series [2] is given as 46%. Further, the AUC(0-t) in series [2] (setting [3]) was determined as 7770 ng·h/mL. For the same compound, in series [2] (iv, 1 mg/kg, IV, dose 1 mg/kg), the clearance was 2 mL/min/kg and the Vd turned out to be 0.62 L/kg. In series [2] (setting [4]), the half-life is 6.1 h. Moreover, in series [2] (po, 3 mg/kg), the peak level (Cmax) was 2380 ng/mL and the Tmax was 1.3 h. The AUC(0-t) in series [2] (setting [5]) is 10600 ng·h/mL. Moreover, the half-life in series [2] (setting [6]) is 4.5 h.

Take `C[C@H]1CC2(CCN(c3ccc(C(=O)N4CCN(CC5CN(c6cc7c(cc6F)C(=O)N(C6CCC(=O)NC6=O)C7=O)C5)CC4)nn3)CC2)CN1c1ccc(C#N)c(Cl)c1` (stereo partly drawn) [Cpd. No. 485, 2-chloro-4-((3S)-8-(6-(4-((1-(2-(2,6-dioxopiperidin-3-yl)-6-fluoro-1,3-dioxoisoindolin-5-yl)azetidin-3-yl)methyl)piperazine-1-carbonyl)pyridazin-3-yl)-3-methyl-2,8-diazaspiro[4.5]decan-2-yl)benzonitrile]: the DC50 in series [1] lay within 1 to 10 nM. This compound also had a F in series [2] of 73%. Also, the AUC(0-t) in series [2] (setting [3]) is 2350 ng·h/mL; in series [2] (setting [5]), 5150 ng·h/mL. Besides, the clearance in series [2] (iv, 1 mg/kg, IV, dose 1 mg/kg) is 6.5 mL/min/kg. The half-life is 9.8 h in series [2] (setting [4]) and 7.2 h in series [2] (setting [6]). In series [2] (iv, 1 mg/kg, IV, dose 1 mg/kg), the Vd came to 2.95 L/kg. This compound also displayed a Cmax in series [2] (po, 3 mg/kg) of 1100 ng/mL. Besides, the time of peak concentration (Tmax) in series [2] (po, 3 mg/kg) was 1 h.

Regarding `C[C@H]1CC2(CCN(c3cnc(C(=O)N4CCN(CC5CN(c6cc7c(cc6F)C(=O)N(C6CCC(=O)NC6=O)C7=O)C5)CC4)cn3)CC2)CN1c1ccc(C#N)c(Cl)c1` (stereo partly drawn) [Cpd. No. 488, 2-chloro-4-((3S)-8-(5-(4-((1-(2-(2,6-dioxopiperidin-3-yl)-6-fluoro-1,3-dioxoisoindolin-5-yl)azetidin-3-yl)methyl)piperazine-1-carbonyl)pyrazin-2-yl)-3-methyl-2,8-diazaspiro[4.5]decan-2-yl)benzonitrile], the DC50 in series [1] was in the range of 1 to 10 nM. In series [2], this compound had an F of 31%. In addition, in series [2] (setting [3]), the AUC(0-t) was determined as 233 ng·h/mL. For the same compound, in series [2] (iv, 1 mg/kg, IV, dose 1 mg/kg), the clearance was 70.2 mL/min/kg and the Vd came out at 7.75 L/kg. In addition, in series [2] (setting [4]), the half-life is 5 h. For the same compound, in series [2] (po, 3 mg/kg), the Cmax amounted to 99.6 ng/mL and the time of peak concentration (Tmax) amounted to 1 h. In addition, in series [2] (setting [5]), the area under the curve AUC(0-t) is 213 ng·h/mL. Besides, the half-life in series [2] (setting [6]) is 3.1 h.

On to `C[C@H]1CC2(CCN(c3ccc(C(=O)N4CCC(CN5CCN(c6ccc7c(c6)C(=O)N(C6CCC(=O)NC6=O)C7=O)CC5)CC4)nn3)CC2)CN1c1ccc(C#N)c(Cl)c1` (stereo partly drawn) [Cpd. No. 489, 2-chloro-4-((3S)-8-(6-(4-((4-(2-(2,6-dioxopiperidin-3-yl)-1,3-dioxoisoindolin-5-yl)piperazin-1-yl)methyl)piperidine-1-carbonyl)pyridazin-3-yl)-3-methyl-2,8-diazaspiro[4.5]decan-2-yl)benzonitrile], for which, in series [1], the DC50 lay within 1 to 10 nM. In addition, the F in series [2] turned out to be 37%. Also, the exposure AUC(0-t) in series [2] (setting [3]) is 2140 ng·h/mL; in series [2] (setting [5]), 2390 ng·h/mL. The clearance in series [2] (iv, 1 mg/kg, IV, dose 1 mg/kg) was 7.33 mL/min/kg. The values for the half-life in series [2] (setting [4]) and in series [2] (setting [6]) were 7.45 h and 7.5 h, respectively. Besides, the Vd in series [2] (iv, 1 mg/kg, IV, dose 1 mg/kg) was 2.72 L/kg. The Cmax in series [2] (po, 3 mg/kg) stood at 477 ng/mL. Moreover, the time to peak (Tmax) in series [2] (po, 3 mg/kg) worked out at 1 h.

With `C[C@H]1CC2(CCN(c3ccc(C(=O)N4CCC(CN5CCN(c6cc7c(cc6F)C(=O)N(C6CCC(=O)NC6=O)C7=O)CC5)CC4)nn3)CC2)CN1c1ccc(C#N)c(Cl)c1` (stereo partly drawn) [Cpd. No. 490, 2-chloro-4-((3S)-8-(6-(4-((4-(2-(2,6-dioxopiperidin-3-yl)-6-fluoro-1,3-dioxoisoindolin-5-yl)piperazin-1-yl)methyl)piperidine-1-carbonyl)pyridazin-3-yl)-3-methyl-2,8-diazaspiro[4.5]decan-2-yl)benzonitrile], the DC50 in series [1] lay within 1 to 10 nM. In addition, the F in series [2] is 25%. The exposure AUC(0-t) in series [2] (setting [3]) worked out at 4920 ng·h/mL. In series [2] (iv, 1 mg/kg, IV, dose 1 mg/kg), the clearance was 3 mL/min/kg and the Vd turned out to be 1.74 L/kg. Besides, in series [2] (setting [4]), the half-life is 8.7 h. In series [2] (po, 3 mg/kg), the highest level (Cmax) was 639 ng/mL and the Tmax worked out at 1 h. In series [2] (setting [5]), the exposure AUC(0-t) was found to be 3730 ng·h/mL. Further, the half-life in series [2] (setting [6]) was 7.1 h.

On to `C[C@H]1CC2(CCN(c3ccc(C(=O)N4CCN(CC5CN(c6ccc7c(c6)C(=O)N(C6CCC(=O)NC6=O)C7=O)C5)CC4)cc3)CC2)CN1c1ccc(C#N)c(Cl)c1` (stereo partly drawn) [Cpd. No. 535, 2-chloro-4-((3S)-8-(4-(4-((1-(2-(2,6-dioxopiperidin-3-yl)-1,3-dioxoisoindolin-5-yl)azetidin-3-yl)methyl)piperazine-1-carbonyl)phenyl)-3-methyl-2,8-diazaspiro[4.5]decan-2-yl)benzonitrile], for which the DC50 in series [1] was under 1 nM.

`C[C@H]1CC2(CCN(c3ccc(C(=O)N4CCN(C5CN(c6cc7c(cc6F)C(=O)N(C6CCC(=O)NC6=O)C7=O)C5)CC4)nn3)CC2)CN1c1ccc(C#N)c(Cl)c1` (stereo partly drawn) [Cpd. No. 536, 2-chloro-4-((3S)-8-(6-(4-(1-(2-(2,6-dioxopiperidin-3-yl)-6-fluoro-1,3-dioxoisoindolin-5-yl)azetidin-3-yl)piperazine-1-carbonyl)pyridazin-3-yl)-3-methyl-2,8-diazaspiro[4.5]decan-2-yl)benzonitrile]: the DC50 in series [1] was under 1 nM.

Turning to `C[C@H]1CC2(CCN(c3ccc(C(=O)N4CC(N5CCN(c6cc7c(cc6F)C(=O)N(C6CCC(=O)NC6=O)C7=O)CC5)C4)nn3)CC2)CN1c1ccc(C#N)c(Cl)c1` (stereo partly drawn) [Cpd. No. 537, 2-chloro-4-((3S)-8-(6-(3-(4-(2-(2,6-dioxopiperidin-3-yl)-6-fluoro-1,3-dioxoisoindolin-5-yl)piperazin-1-yl)azetidine-1-carbonyl)pyridazin-3-yl)-3-methyl-2,8-diazaspiro[4.5]decan-2-yl)benzonitrile], in series [1], the DC50 lay in the range of 1 to 10 nM.

In the case of `C[C@H]1CC2(CCN(c3ccc(C(=O)N4CC(N5CCN(c6cc7c(cc6F)C(=O)N(C6CCC(=O)NC6=O)C7=O)CC5)C4)nc3)CC2)CN1c1ccc(C#N)c(Cl)c1` (stereo partly drawn) [Cpd. No. 538, 2-chloro-4-((3S)-8-(6-(3-(4-(2-(2,6-dioxopiperidin-3-yl)-6-fluoro-1,3-dioxoisoindolin-5-yl)piperazin-1-yl)azetidine-1-carbonyl)pyridin-3-yl)-3-methyl-2,8-diazaspiro[4.5]decan-2-yl)benzonitrile], in series [1], the DC50 lay within 1 to 10 nM.

With `C[C@H]1CC2(CCN(c3ccc(C(=O)N4CC(N5CCN(c6cc7c(cc6F)C(=O)N(C6CCC(=O)NC6=O)C7=O)CC5)C4)cn3)CC2)CN1c1ccc(C#N)c(Cl)c1` (stereo partly drawn) [Cpd. No. 539, 2-chloro-4-((3S)-8-(5-(3-(4-(2-(2,6-dioxopiperidin-3-yl)-6-fluoro-1,3-dioxoisoindolin-5-yl)piperazin-1-yl)azetidine-1-carbonyl)pyridin-2-yl)-3-methyl-2,8-diazaspiro[4.5]decan-2-yl)benzonitrile], the DC50 in series [1] is 1 to 10 nM.

The record behind these values is patent US20220380368A1, “SPIROCYCLIC ANDROGEN RECEPTOR PROTEIN DEGRADERS” (THE REGENTS OF THE UNIVERSITY OF MICHIGAN, priority 2019, published 2022).
